Calls of active or inactive are those of the source. No cut-off for these calls is given here.
What was measured:
[1] = test system: Rattus norvegicus; test: Androgenic activity in ORX Sprague-Dawley rat assessed as restoration of prostate weight at 0.1 to 1 ug/day delivered at constant rate for 14 days via subcutaneous osmotic pumps; type: functional
[2] = test system: Rattus norvegicus; test: Anabolic activity in ORX Sprague-Dawley rat assessed as restoration of levator ani muscle weight at 0.1 to 1 ug/day delivered at constant rate for 14 days via subcutaneous osmotic pumps; type: functional
[3] = test system: Rattus norvegicus; test: Androgenic activity in ORX Sprague-Dawley rat assessed as restoration of seminal vesicles weight at 0.1 to 1 ug/day delivered at constant rate for 14 days via subcutaneous osmotic pumps; type: functional
[4] = test system: Bone marrow cell; test: Induction of differentiation of rat primary bone marrow cells toward osteoblast lineage assessed as ALP activity at 1 uM by spectrophotometric analysis; type: functional, cell-based
[5] = test system: Rattus norvegicus; test: Reduction in serum cholesterol in female Sprague-Dawley rat at 100 mg/kg, po qd administered for 28 days; type: functional, organism-based
[6] = test system: Rattus norvegicus; test: Effect on serum LH in ORX Sprague-Dawley rat at 1 mg/day administered 9 days post ORX via oral gavage for 14 days (reference value: 9.66 +/- 1.13 ng/ml); type: functional
[7] = test system: Homo sapiens; test: Effect on lean weight level in truncal obese human at 3 mg administered daily via mouth for 14 days (reference value: 436.47 g); type: functional
[8] = Tmax in human plasma at 1 to 100 mg administered as PEG300-based oral solution; type: ADME, cell-free
[9] = test system: Homo sapiens; test: Effect on lean weight level in healthy human at 3 mg administered daily via mouth for 14 days (reference value: 436.47 g); type: functional
[10] = test system: Homo sapiens; test: Effect on fat weight in healthy human at 3 mg administered daily via mouth for 14 days (reference value: 436 g); type: functional
[11] = test system: Homo sapiens; test: Effect on fat weight in healthy human at 10 mg administered daily via mouth for 14 days (reference value: 436 g); type: functional
[12] = test system: Rattus norvegicus; test: Androgenic activity in ORX Sprague-Dawley rat assessed as increase in prostate weight at 0.75 mg/day measured after delayed dosing administered 9 days post ORX via oral gavage for 14 days relative to intact control; type: functional
[13] = test system: Homo sapiens; test: Effect on regional fat level in healthy human at 30 mg administered daily via mouth for 14 days (reference value: 0.64%); type: functional
[14] = test system: Rattus norvegicus; test: Effect on serum LH in ORX Sprague-Dawley rat at 0.01 mg/day administered 9 days post ORX via oral gavage for 14 days (reference value: 9.66 +/- 1.13 ng/ml); type: functional
[15] = test system: Rattus norvegicus; test: Androgenic activity in ORX Sprague-Dawley rat assessed as increase in prostate weight at 0.01 mg/day measured after delayed dosing administered 9 days post ORX via oral gavage for 14 days relative to intact control; type: functional
[16] = test system: Rattus norvegicus; test: Androgenic activity in ORX Sprague-Dawley rat assessed as restoration in seminal vesicle weight at 0.3 mg/day measured after delayed dosing administered 9 days post ORX via oral gavage for 14 days relative to intact control; type: functional
[17] = test system: Rattus norvegicus; test: Androgenic activity in ORX Sprague-Dawley rat assessed as restoration in seminal vesicle weight at 0.03 mg/day measured after delayed dosing administered 9 days post ORX via oral gavage for 14 days relative to intact control; type: functional
[18] = species on record: Rattus norvegicus; test: Effect on serum FSH in intact Sprague-Dawley rat at 0.75 mg/day measured for 14 days (reference value: 6.40 +/- 1.58 ng/ml); type: functional
[19] = test system: Rattus norvegicus; test: Anabolic activity in ORX Sprague-Dawley rat assessed as restoration of levator ani muscle weight measured after delayed dosing administered 9 days post ORX via oral gavage for 14 days; type: functional
[20] = test system: Rattus norvegicus; test: Androgenic activity in ORX Sprague-Dawley rat assessed as restoration in seminal vesicle weight at 1 mg/day measured after delayed dosing administered 9 days post ORX via oral gavage for 14 days relative to intact control; type: functional
[21] = Tmax in human plasma at 1 to 100 mg administered as solid oral dosage; type: ADME, cell-free
[22] = species on record: Rattus norvegicus; test: Effect on serum FSH in intact Sprague-Dawley rat at 1 mg/day measured for 14 days (reference value: 6.40 +/- 1.58 ng/ml); type: functional
[23] = Terminal half life in human at 1 to 100 mg administered as PEG300-based solution after 72 hrs; type: ADME; settings: in vivo, read-out: beta t1/2
[24] = test system: Rattus norvegicus; test: Reduction in serum cholesterol in male Sprague-Dawley rat at 3 mg/kg, po qd administered for 28 days; type: functional; set-up: scale not given: the % may be the effect or the level left
[25] = species on record: Rattus norvegicus; test: Effect on serum LH in intact Sprague-Dawley rat at 0.3 mg/day measured for 14 days (reference value: 0.281 +/- 0.126 ng/ml); type: functional
[26] = test system: Rattus norvegicus; test: Androgenic activity in intact Sprague-Dawley rat assessed as increase in prostate weight at 0.01 mg/day administered via oral gavage for 14 days relative to intact control; type: functional
[27] = test system: Rattus norvegicus; test: Anabolic activity in ORX Sprague-Dawley rat assessed as increase in levator ani muscle weight at 0.1 mg/day measured after delayed dosing administered 9 days post ORX via oral gavage for 14 days relative to intact control; type: functional
[28] = test system: Homo sapiens; test: Effect on bone mineral content in healthy human at 3 mg administered daily via mouth for 14 days (reference value: 36.47 g); type: functional
[29] = test system: Homo sapiens; test: Effect on tissue weight in healthy human at 3 mg administered daily via mouth for 14 days (reference value: -8.24 g); type: functional
[30] = test system: Rattus norvegicus; test: Effect on serum FSH in ORX Sprague-Dawley rat at 0.1 mg/day administered 9 days post ORX via oral gavage for 14 days (reference value: 43.45 +/- 4.97 ng/ml); type: functional
[31] = test system: Rattus norvegicus; test: Induction of […] bone density in ovary intact Sprague-Dawley rat at 3 mg/day administered daily by oral gavage measured after 45 days (reference value: 379 mg/mm'3); type: functional
[32] = test system: Homo sapiens; test: Effect on regional fat level in healthy human at 3 mg administered daily via mouth for 14 days (reference value: 0.64%); type: functional
[33] = species on record: Rattus norvegicus; test: Effect on serum LH in intact Sprague-Dawley rat at 1 mg/day measured for 14 days (reference value: 0.281 +/- 0.126 ng/ml); type: functional
[34] = species on record: Rattus norvegicus; test: Effect on serum FSH in intact Sprague-Dawley rat at 0.1 mg/day measured for 14 days (reference value: 6.40 +/- 1.58 ng/ml); type: functional
[35] = test system: Homo sapiens; test: Effect on tissue fat level in truncal obese human at 30 mg administered daily via mouth for 14 days (reference value: 0.69%); type: functional, Adipose tissue
[36] = test system: Homo sapiens; test: Effect on lean weight level in truncal obese human at 30 mg administered daily via mouth for 14 days (reference value: 436.47 g); type: functional
[37] = species on record: Rattus norvegicus; test: Effect on serum LH in intact Sprague-Dawley rat at 0.1 mg/day measured for 14 days (reference value: 0.281 +/- 0.126 ng/ml); type: functional
[38] = test system: Rattus norvegicus; test: Induction of […] bone density in OVX Sprague-Dawley rat at 3 mg/day administered daily by oral gavage measured after 45 days (reference value: 215 mg/mm'3); type: functional
[39] = Drug uptake in human plasma at 1 to 100 mg administered as PEG300-based solution after 72 hrs; type: ADME, cell-free
[40] = test system: Rattus norvegicus; test: Effect on serum FSH in ORX Sprague-Dawley rat at 1 mg/day administered 9 days post ORX via oral gavage for 14 days (reference value: 43.45 +/- 4.97 ng/ml); type: functional
[41] = test system: Homo sapiens; test: Effect on fat weight in healthy human at 1 mg administered daily via mouth for 14 days (reference value: 436 g); type: functional
[42] = test system: Homo sapiens; test: Effect on tissue weight in healthy human at 10 mg administered daily via mouth for 14 days (reference value: -8.24 g); type: functional
[43] = test system: Rattus norvegicus; test: Androgenic activity in ORX Sprague-Dawley rat assessed as restoration in seminal vesicle weight at 0.01 mg/day measured after delayed dosing administered 9 days post ORX via oral gavage for 14 days relative to intact control; type: functional
[44] = species on record: Rattus norvegicus; test: Effect on serum LH in intact Sprague-Dawley rat at 0.75 mg/day measured for 14 days (reference value: 0.281 +/- 0.126 ng/ml); type: functional
[45] = test system: Homo sapiens; test: Effect on tissue fat level in healthy human at 10 mg administered daily via mouth for 14 days (reference value: 0.69%); type: functional, Adipose tissue
[46] = test system: Homo sapiens; test: Effect on regional fat level in healthy human at 1 mg administered daily via mouth for 14 days (reference value: 0.64%); type: functional
[47] = test system: Rattus norvegicus; test: Androgenic activity in ORX Sprague-Dawley rat assessed as restoration of prostate weight measured after delayed dosing administered 9 days post ORX via oral gavage for 14 days; type: functional
[48] = test system: Rattus norvegicus; test: Androgenic activity in ORX Sprague-Dawley rat assessed as increase in prostate weight at 0.3 mg/day measured after delayed dosing administered 9 days post ORX via oral gavage for 14 days relative to intact control; type: functional
[49] = test system: Rattus norvegicus; test: Effect on serum LH in ORX Sprague-Dawley rat at 0.3 mg/day administered 9 days post ORX via oral gavage for 14 days (reference value: 9.66 +/- 1.13 ng/ml); type: functional
[50] = test system: Rattus norvegicus; test: Increase in femoral maximum load in OVX Sprague-Dawley rat at 3 mg/day administered daily co-treated with 1 mg/day alendronate by oral gavage measured after 45 days; type: functional
[51] = test system: Homo sapiens; test: Effect on lean weight level in healthy human at 10 mg administered daily via mouth for 14 days (reference value: 436.47 g); type: functional
[52] = test system: Rattus norvegicus; test: Effect on serum LH in ORX Sprague-Dawley rat at 0.75 mg/day administered 9 days post ORX via oral gavage for 14 days (reference value: 9.66 +/- 1.13 ng/ml); type: functional
[53] = test system: Bone marrow cell; test: Induction of differentiation of rat primary bone marrow cells toward osteoblast lineage assessed as ALP activity at 10 nM to 100 nM by spectrophotometric analysis; type: functional, cell-based

C[C@](O)(COc1ccc(Br)cc1)C(=O)Nc1ccc([N+](=O)[O-])c(C(F)(F)F)c1
Activity [1]: <40%
Activity [2]: Active
Activity [3]: <40%

CC(O)(COc1ccc(C#N)cc1)C(=O)Nc1ccc(C#N)c(C(F)(F)F)c1 (stereo not drawn)
Activity [4]: Active
Activity [5]: Active
Activity [6]: Below limit of detection
Activity [7]: 1569.44 g
Tmax [8]: 0.8 to 2.3 h
Activity [9]: 752.11 g
Activity [10]: -22.67 g
Activity [11]: 197.44 g
Activity [12]: 62%
Activity [13]: 0.95%
Activity [14]: 8.45 ng/mL
Activity [15]: 9%
Activity [16]: 49%
Activity [17]: 9%
Activity [18]: 4.3 ng/mL
ED50 [19]: 0.013 mg/kg
Activity [20]: 67%
Tmax [21]: 3.2 to 3.9 h
Activity [22]: 4.38 ng/mL
half-life [23]: 19 to 22 h
Activity [24]: 30%
Activity [25]: Below limit of detection
Activity [26]: Active
Activity [27]: 103%
Activity [28]: -32.22 g
Activity [29]: 728.89 g
Activity [30]: 20.69 ng/mL
Activity [31]: 398 mg/mm3
Activity [32]: -0.22%
Activity [33]: Below limit of detection
Activity [34]: 6.6 ng/mL
Activity [35]: -0.13%
Activity [36]: 261 g
Activity [37]: 0.177 ng/mL
Activity [38]: 406 mg/mm3
Drug uptake [39]: Active
Activity [40]: 6.33 ng/mL
Activity [41]: 197.89 g
Activity [42]: 566.22 g
Activity [43]: 7%
Activity [44]: Below limit of detection
Activity [45]: 0.1%
Activity [46]: 0.23%
ED50 [47]: 0.22 mg/kg
Emax [47]: 75%
Activity [48]: 50%
Activity [49]: Below limit of detection
Activity [50]: 207 N
Activity [51]: 368.67 g
Activity [52]: Below limit of detection
Activity [53]: Active

C[C@](O)(COc1ccc(Cl)cc1)C(=O)Nc1ccc(C#N)c(C(F)(F)F)c1
Activity [1]: Dose-dependent effect
Activity [2]: Active
Activity [3]: Dose-dependent effect

C[C@]12CCC(=O)C[C@@H]1CC[C@@H]1[C@@H]2CC[C@]2(C)[C@@H](O)CC[C@@H]12
Activity [4]: Active
